Results reported in US11186592B2, “Thiazolopyridine derivatives as adenosine receptor antagonists” (MERCK PATENT GMBH, priority 2017, dated 2021).

Legend:
[1] = Pharmacokinetic properties in mouse after single intravenous and oral administration; details: for Cmax / half-life / clearance / Vd: female, iv, 0.2 mg/kg; for clearance: CL; for clearance / Vd: iv administration; for Vd: Vss
Experimental: Female Wistar rats/mice (n=6) received either a single intravenous (bolus) injection or an oral administration (by gavage) of the tested compound.
The concentrations of the compounds in plasma, feces were quantified using an UPLC method with tandem mass spectrometric detection (LC-MS/MS) previously developed at the ‘Institute of Drug Metabolism and Pharmacokinetics’. […] The detection of the compounds was performed using multiple reaction monitoring in the positive ionization mode. Plasma samples were spiked with internal standard (20 μl) and the analyte was extracted from the matrix using tertiary-butyl methyl ether (tBME). The organic phase was evaporated to dryness under a stream of nitrogen. The residue was dissolved in acetonitrile/0.1% formic acid for LC-MS/MS analysis. Feces samples were homogenized with 4-times their volume of an ethanol/water mixture (4:1, v/v). Aliquots of the aqueous-ethanolic extracts were spiked with internal standard, diluted with acetonitrile/water (1:1, v/v) and directly injected into the LC-MS/MS system.
Pharmacokinetic parameters Cmax and tmax were taken from the observed data. […] AUC values were calculated by non-compartmental analysis using the linear up/log down method. Numerical data for mean plasma concentrations and derived pharmacokinetic parameters were rounded to 3 significant digits for presentation.

[2] = target: T1, human A3 receptor (Homo sapiens, UniProt P0DMS8); experiment: cAMP (HTRF) functional assay, recombinant CHO cells expressing human A3 receptor, forskolin + agonist IB-MECA; type: cell-based
T1 construct: expressed in transfected cells; host or cells: CHO
T1 sequence (P0DMS8 1-318): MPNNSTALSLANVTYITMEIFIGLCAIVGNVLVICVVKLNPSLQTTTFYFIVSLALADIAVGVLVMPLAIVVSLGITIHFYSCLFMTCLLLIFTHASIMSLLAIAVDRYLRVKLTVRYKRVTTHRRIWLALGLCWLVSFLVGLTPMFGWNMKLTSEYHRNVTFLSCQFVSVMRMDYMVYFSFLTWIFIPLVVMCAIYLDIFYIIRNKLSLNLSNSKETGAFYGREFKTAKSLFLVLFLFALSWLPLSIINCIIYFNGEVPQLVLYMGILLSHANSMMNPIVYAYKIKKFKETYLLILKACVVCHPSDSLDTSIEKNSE
Experimental: The functional activities of human A2A, A2B, A1 and A3 receptors were determined by quantification of cAMP, being the second messenger for adenosine receptors.
For human A1 and A3 receptors, recombinant CHO cells, expressing either A1 or A3-receptor, were used. As both receptors couple to Gi proteins, the assay protocol was adapted:
Cells were seeded into 384-well plates, forskolin, test compounds and agonists (CPA for A1- and IB-MECA for A3-receptor) were added. After 30 min incubation, HTRF reagents (cAMP dynamic 2, Cis Bio) were added and the cellular cAMP levels were determined using the ENVISION (Perkin Elmer) plate reader. Obtained raw data were normalized against the inhibitor control and the neural control (DMSO) and the normalized data were fitted using GeneData software.

[3] = target: T2, human A1 receptor (Homo sapiens, UniProt P30542); experiment: cAMP (HTRF) functional assay, recombinant CHO cells expressing human A1 receptor, forskolin + agonist CPA; type: cell-based
T2 construct: expressed in transfected cells; host or cells: CHO
T2 sequence (P30542 1-326): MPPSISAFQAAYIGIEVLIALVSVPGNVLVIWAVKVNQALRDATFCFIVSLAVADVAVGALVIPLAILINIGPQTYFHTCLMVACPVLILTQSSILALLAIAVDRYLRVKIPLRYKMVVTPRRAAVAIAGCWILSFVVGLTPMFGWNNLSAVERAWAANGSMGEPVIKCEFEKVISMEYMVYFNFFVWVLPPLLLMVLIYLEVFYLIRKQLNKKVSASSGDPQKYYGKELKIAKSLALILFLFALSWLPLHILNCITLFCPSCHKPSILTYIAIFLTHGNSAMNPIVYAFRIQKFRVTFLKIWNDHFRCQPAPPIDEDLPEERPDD
Outline: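 Normalized HTRF cAMP signals (inhibitor and DMSO controls as references) were curve-fitted; assays used forskolin-stimulated CHO cells with A1 or A3, agonist CPA or IB-MECA respectively, 30 min compound incubation.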

[4] = target: T3, human A2A receptor (Homo sapiens, UniProt P29274); experiment: cAMP (HTRF) functional assay, recombinant HEK293 cells expressing human A2A receptor, agonist NECA; type: cell-based
T3 construct: expressed in transfected cells; host or cells: HEK293
T3 sequence (P29274 whole entry): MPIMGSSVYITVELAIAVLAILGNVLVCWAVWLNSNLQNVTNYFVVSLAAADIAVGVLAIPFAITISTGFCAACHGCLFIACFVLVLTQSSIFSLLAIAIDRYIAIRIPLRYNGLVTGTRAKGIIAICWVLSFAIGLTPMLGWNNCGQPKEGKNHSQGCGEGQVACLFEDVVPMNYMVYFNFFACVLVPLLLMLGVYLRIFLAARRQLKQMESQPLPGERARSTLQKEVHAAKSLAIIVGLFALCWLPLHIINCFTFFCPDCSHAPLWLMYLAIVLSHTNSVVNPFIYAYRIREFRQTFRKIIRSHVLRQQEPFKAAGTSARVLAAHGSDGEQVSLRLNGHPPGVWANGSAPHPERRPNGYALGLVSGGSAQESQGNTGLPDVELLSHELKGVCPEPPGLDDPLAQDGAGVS
Outline: (§1)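 Intracellular cAMP, the adenosine receptor second messenger, is measured by HTRF following 30 min co-incubation with forskolin, agonist and test compound. Normalization uses DMSO as the neutral control and an inhibitor as the reference control. Fitted curves yield the values.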

[5] = target: T4, human A2B receptor (Homo sapiens, UniProt P29275); experiment: cAMP (HTRF) functional assay, recombinant HEK293 cells expressing human A2B receptor, agonist NECA; type: cell-based
T4 construct: expressed in transfected cells; host or cells: HEK293
T4 sequence (P29275 1-332): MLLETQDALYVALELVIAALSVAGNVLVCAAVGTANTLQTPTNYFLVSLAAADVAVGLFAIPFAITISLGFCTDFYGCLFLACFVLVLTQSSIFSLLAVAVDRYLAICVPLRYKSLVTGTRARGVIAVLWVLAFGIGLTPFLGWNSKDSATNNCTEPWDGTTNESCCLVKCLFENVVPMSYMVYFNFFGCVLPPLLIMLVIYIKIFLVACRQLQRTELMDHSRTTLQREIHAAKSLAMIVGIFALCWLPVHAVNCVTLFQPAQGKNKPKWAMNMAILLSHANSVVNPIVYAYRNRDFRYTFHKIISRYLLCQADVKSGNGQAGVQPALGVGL
Outline: as §1

Compound | Cmax ([1]; in vivo) [ng/mL] | half-life ([1]; in vivo) [min] | clearance ([1]; plasma) [mL/min/kg] | Vd ([1]; plasma) [L/kg] | Feces iv ([1]; % of dose in feces after iv, @0.2 (iv dose 0.2 mg/kg)) | Cmax ([1]; plasma) [ng/mL] | IC50 [2] [nM] | IC50 [3] [nM] | IC50 [4] [nM] | IC50 [5] [nM]
COc1ncc(N2CCOCC2)c2sc(NC(=O)N3CCC(C)(O)CC3)nc12 [compound 1, 4-Hydroxy-4-methyl-piperidine-1-carboxylic acid (4-methoxy-7-morpholin-4-yl-thiazolo[4,5-c]pyridin-2-yl)-amide] | 449 | 10.3 | 114 | 1.45 |  |  |  |  |  | 
COCCn1cc(C(=O)Nc2nc3c(OC)ccc(N4CCOCC4)c3s2)cn1 [Benzothiazole analogue to No. 4, reference compound] |  | 19.9 | 36.3 | 0.946 | 2.6@0.2% | 940 |  |  |  | 
COc1ncc(-c2ccccc2)c2sc(NC(=O)N3CCC4(CCOC4)C3)nc12 (centres unmarked) [compound 54, 2-Oxa-7-aza-spiro[4.4]nonane-7-carboxylic acid (4-methoxy-7-phenyl-thiazolo[4,5-c]pyridin-2-yl)-amide] |  |  |  |  |  |  | > 1000 | < 1000 | < 10 | < 100
COc1ncc(-c2ccccc2)c2sc(NC(=O)c3ccc(N4C(=O)CCC4=O)cc3)nc12 [compound 213, 4-(2,5-Dioxo-pyrrolidin-1-yl)-N-(4-methoxy-7-phenyl-thiazolo[4,5-c]pyridin-2-yl)-benzamide] |  |  |  |  |  |  | > 1000 | < 1000 | < 10 | < 100
COCc1ccc(C(=O)Nc2nc3c(OC)ncc(-c4cnn(C)c4)c3s2)cc1 [compound 14] |  |  |  |  |  |  | < 1000 | < 1000 | < 10 | < 1000
COc1ncc(N2CCOCC2)c2sc(NC(=O)c3cnn(C)c3)nc12 [compound 171, 1-Methyl-1H-pyrazole-4-carboxylic acid (4-methoxy-7-morpholin-4-yl-thiazolo[4,5-c]pyridin-2-yl)-amide] |  |  |  |  |  |  | < 1000 | < 1000 | < 10 | < 100
COc1ncc(C2=CCOCC2)c2sc(NC(=O)c3cnn(C)c3)nc12 [compound 238, N-[7-(3,6-dihydro-2H-pyran-4-yl)-4-methoxy-[1,3]thiazolo[4,5-c]pyridin-2-yl]-1-methyl-1H-pyrazole-4-carboxamide] |  |  |  |  |  |  | < 1000 | < 10 | < 10 | < 10
COc1ncc(-c2ccccc2)c2sc(NC(=O)N3CC[C@]4(CCOC4)C3)nc12 [compound 207, (S)-2-Oxa-7-aza-spiro[4.4]nonane-7-carboxylic acid (4-methoxy-7-phenyl-thiazolo[4,5-c]pyridin-2-yl)-amide] |  |  |  |  |  |  | > 1000 | < 1000 | < 10 | < 100
COc1ncc(N2CCOCC2)c2sc(NC(=O)N3CC[C@]4(CCOC4)C3)nc12 [compound 17, (5S)-N-[4-methoxy-7-(morpholin-4-yl)-[1,3]thiazolo[4,5-c]pyridin-2-yl]-2-oxa-7-azaspiro[4.4]nonane-7-carboxamide] |  |  |  |  |  |  | > 1000 | > 1000 | < 10 | < 1000
COc1ncc(C2CCOCC2)c2sc(NC(=O)c3cnn(C)c3)nc12 [compound 235, N-[4-methoxy-7-(oxan-4-yl)-[1,3]thiazolo[4,5-c]pyridin-2-yl]-1-methyl-1H-pyrazole-4-carboxamide] |  |  |  |  |  |  | < 1000 | < 100 | < 10 | < 10
COCCOc1cccc(-c2c(F)nc(OC)c3nc(NC(=O)N4CCC5(CCOCC5)C4)sc23)c1 [compound 234, N-{6-fluoro-4-methoxy-7-[3-(2-methoxyethoxy)phenyl]-[1,3]thiazolo[4,5-c]pyridin-2-yl}-8-oxa-2-azaspiro[4.5]decane-2-carboxamide] |  |  |  |  |  |  | < 100 | < 100 | < 10 | < 10
COc1ncc(-c2ccccc2)c2sc(NC(=O)[C@H]3C[C@@H]3OC)nc12 (racemic) [compound 202, (1S,2S)-2-methoxy-N-{4-methoxy-7-phenyl-[1,3]thiazolo[4,5-c]pyridin-2-yl}cyclopropane-1-carboxamide] |  |  |  |  |  |  | < 1000 | < 1000 | < 100 | < 100
COc1ncc(N2CCOCC2)c2sc(NC(=O)N3CCC4(CCOC4)C3)nc12 (centres unmarked) [compound 9, 2-Oxa-7-aza-spiro[4.4]nonane-7-carboxylic acid (4-methoxy-7-morpholin-4-yl-thiazolo[4,5-c]pyridin-2-yl)-amide] |  |  |  |  |  |  | > 1000 | > 1000 | < 10 | < 1000
COc1ccccc1-c1cnc(OC)c2nc(NC(=O)N3CCC4(CCOCC4)C3)sc12 [compound 236, N-[4-methoxy-7-(2-methoxyphenyl)-[1,3]thiazolo[4,5-c]pyridin-2-yl]-8-oxa-2-azaspiro[4.5]decane-2-carboxamide] |  |  |  |  |  |  | > 1000 | > 1000 | < 100 | < 100
COc1nc(Cl)c(-c2ccccc2)c2sc(NC(=O)N3CCC4(CCOCC4)C3)nc12 [compound 220, 8-Oxa-2-aza-spiro[4.5]decane-2-carboxylic acid (6-chloro-4-methoxy-7-phenyl-thiazolo[4,5-c]pyridin-2-yl)-amide] |  |  |  |  |  |  | > 1000 | > 1000 | < 10 | < 100
COc1ncc(-c2cnn(C)c2)c2sc(NC(=O)N3CC[C@]4(CCOC4)C3)nc12 [compound 173, (S)-2-Oxa-7-aza-spiro[4.4]nonane-7-carboxylic acid [4-methoxy-7-(1-methyl-1H-pyrazol-4-yl)-thiazolo[4,5-c]pyridin-2-yl]-amide] |  |  |  |  |  |  | > 1000 | > 1000 | < 10 | < 100
